Where a name gives a salt, the structure may show the parent alone.
Experiments:
[1] = test system: NCI-H2122; assay: relative IC50 of cell viability (CellTiter-Glo); higher = less potent
Protocol: (§1)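 CellTiter-Glo proliferation assay in KRAS G12C mutant NCI-H2122 (72 h), SW837 (144 h) and NCI-H358 cells in 384-well plates. Monotherapy dose response was fitted with a four-parameter curve after normalisation to DMSO controls (% of control, PoC). IC50 is the relative IC50, averaged over replicates. Bottom is the fitted lower plateau in %PoC; Max.Conc. is the top dose tested.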

[2] = test system: NCI-H2122; assay: fitted bottom plateau of viability curve, % of DMSO control; higher = less maximal inhibition; extreme values may be limits of the assay
Protocol: as §1

[3] = test system: SW837; assay: as above
Protocol: as §1

[4] = test system: NCI-H2122; assay: combination cScore with sotorasib (Bliss gap around IC50) (%PoC); higher = stronger additive effect
Procedure, shortened: (§2)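 The score averages the gap between expected and measured viability under Bliss independence, taken over a field around the IC50 of each single agent or, where an IC50 was not reached, at the highest concentrations. Viability came from CellTiter-Glo luminescence, normalised to vehicle wells as percent of control and fitted with four-parameter curves. NCI-H2122, NCI-H358 and SW837 cells were dosed in concentration matrices 24 h after seeding and grown for 72 h, or 144 h for SW837.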

[5] = test system: SW837; assay: as above
Procedure, shortened: as §2

| Compound | relative IC50 of cell viability [1] | fitted bottom plateau of viability curve [2] | fitted bottom plateau of viability curve [3] | combination cScore with sotorasib [4] | combination cScore with sotorasib [5] |
| --- | --- | --- | --- | --- | --- |
| COc1ccc2nc3ccc(OC)cc3c(SCCCN)c2c1 (top concentration tested 10000 nM) | 9.65 µM | 59% | 84.2% | – | – |
| C[C@@H](Oc1cc(-c2cnn(C3CCNCC3)c2)cnc1N)c1c(Cl)ccc(F)c1Cl (top concentration tested 10000 nM) | 1.23 µM | 4.25% | 31.9% | – | – |
| O=[N+]([O-])c1ccc(NCCNc2ncc(-c3ncc[nH]3)c(-c3ccc(Cl)cc3Cl)n2)nc1 (top concentration tested 10000 nM) | 8.95 µM | 43.5% | 91.7% | – | – |
| CNC(=O)c1cc(Oc2ccc(NC(=O)Nc3ccc(Cl)c(C(F)(F)F)c3)c(F)c2)ccn1 [Regorafenib] + C=CC(=O)N1CCN(c2nc(=O)n(-c3c(C)ccnc3C(C)C)c3nc(-c4c(O)cccc4F)c(F)cc23)[C@@H](C)C1 [sotorasib] | – | – | – | 7.32 | -5.66 |
| COc1cc(OC)c(/C=C/S(=O)(=O)Cc2ccc(OC)c(NCC(=O)O)c2)c(OC)c1 [Rigosertib] + C=CC(=O)N1CCN(c2nc(=O)n(-c3c(C)ccnc3C(C)C)c3nc(-c4c(O)cccc4F)c(F)cc23)[C@@H](C)C1 [sotorasib] | – | – | – | 2.41 | 13.3 |
| C/C=C1\NC(=O)[C@H]2CSSCC/C=C/[C@H](CC(=O)N[C@H](C(C)C)C(=O)N2)OC(=O)[C@H](C(C)C)NC1=O [Romidepsin] + C=CC(=O)N1CCN(c2nc(=O)n(-c3c(C)ccnc3C(C)C)c3nc(-c4c(O)cccc4F)c(F)cc23)[C@@H](C)C1 [sotorasib] | – | – | – | 5.9 | 12.7 |
| N#CC[C@H](C1CCCC1)n1cc(-c2ncnc3[nH]ccc23)cn1 [Ruxolitinib] + C=CC(=O)N1CCN(c2nc(=O)n(-c3c(C)ccnc3C(C)C)c3nc(-c4c(O)cccc4F)c(F)cc23)[C@@H](C)C1 [sotorasib] | – | – | – | 4.05 | 6.8 |
| CC(C)(C)c1ccc(S(=O)(=O)NCc2ccc(C(=O)Nc3cccnc3)cc2)cc1 [STF-31] + C=CC(=O)N1CCN(c2nc(=O)n(-c3c(C)ccnc3C(C)C)c3nc(-c4c(O)cccc4F)c(F)cc23)[C@@H](C)C1 [sotorasib] | – | – | – | -10.2 | 17.6 |
| CNC(=O)c1cc(Oc2ccc(NC(=O)Nc3ccc(Cl)c(C(F)(F)F)c3)cc2)ccn1 [Sorafenib] + C=CC(=O)N1CCN(c2nc(=O)n(-c3c(C)ccnc3C(C)C)c3nc(-c4c(O)cccc4F)c(F)cc23)[C@@H](C)C1 [sotorasib] | – | – | – | 4.75 | -8.41 |
| CCN(CC)CCNC(=O)c1c(C)[nH]c(/C=C2\C(=O)Nc3ccc(F)cc32)c1C [Sunitinib] + C=CC(=O)N1CCN(c2nc(=O)n(-c3c(C)ccnc3C(C)C)c3nc(-c4c(O)cccc4F)c(F)cc23)[C@@H](C)C1 [sotorasib] | – | – | – | 10.9 | 23 |
| Cn1nnc2c(C(N)=O)ncn2c1=O [Temozolomide] + C=CC(=O)N1CCN(c2nc(=O)n(-c3c(C)ccnc3C(C)C)c3nc(-c4c(O)cccc4F)c(F)cc23)[C@@H](C)C1 [sotorasib] | – | – | – | 6.39 | -4.91 |
| C[C@@H]1CCN(C(=O)CC#N)C[C@@H]1N(C)c1ncnc2[nH]ccc12 [Tofacitinib citrate] + C=CC(=O)N1CCN(c2nc(=O)n(-c3c(C)ccnc3C(C)C)c3nc(-c4c(O)cccc4F)c(F)cc23)[C@@H](C)C1 [sotorasib] | – | – | – | 1.35 | 2.98 |
| CC(C)C[C@@H](C(=O)N[C@H](C(=O)OC1CCCC1)c1ccccc1)[C@H](O)C(=O)NO [Tosedostat] + C=CC(=O)N1CCN(c2nc(=O)n(-c3c(C)ccnc3C(C)C)c3nc(-c4c(O)cccc4F)c(F)cc23)[C@@H](C)C1 [sotorasib] | – | – | – | 10.4 | 31.5 |
| CC(=O)Nc1cccc(-n2c(=O)n(C3CC3)c(=O)c3c(Nc4ccc(I)cc4F)n(C)c(=O)c(C)c32)c1 [Trametinib] + C=CC(=O)N1CCN(c2nc(=O)n(-c3c(C)ccnc3C(C)C)c3nc(-c4c(O)cccc4F)c(F)cc23)[C@@H](C)C1 [sotorasib] | – | – | – | 14.2 | 14.5 |
| CC1=C(/C=C/C(C)=C/C=C/C(C)=C/C(=O)O)C(C)(C)CCC1 [Tretinoin] + C=CC(=O)N1CCN(c2nc(=O)n(-c3c(C)ccnc3C(C)C)c3nc(-c4c(O)cccc4F)c(F)cc23)[C@@H](C)C1 [sotorasib] | – | – | – | 10.5 | 15.7 |
| COc1cc2c(NC3CCN(C(C)C)CC3)nc(C3CCCCC3)nc2cc1OCCCN1CCCC1 [UNC0638] + C=CC(=O)N1CCN(c2nc(=O)n(-c3c(C)ccnc3C(C)C)c3nc(-c4c(O)cccc4F)c(F)cc23)[C@@H](C)C1 [sotorasib] | – | – | – | -0.46 | 9.19 |
| CC(C)Nc1cc(-c2c[nH]c(C(=O)N[C@H](CO)c3cccc(Cl)c3)c2)c(Cl)cn1 [Ulixertinib] + C=CC(=O)N1CCN(c2nc(=O)n(-c3c(C)ccnc3C(C)C)c3nc(-c4c(O)cccc4F)c(F)cc23)[C@@H](C)C1 [sotorasib] | – | – | – | -4.67 | 3.35 |
| CS(=O)(=O)c1ccc(-c2cnc(N)c(C(=O)Nc3ccccc3)n2)cc1 [VE-821] + C=CC(=O)N1CCN(c2nc(=O)n(-c3c(C)ccnc3C(C)C)c3nc(-c4c(O)cccc4F)c(F)cc23)[C@@H](C)C1 [sotorasib] | – | – | – | 6.24 | 6.3 |
| CNCc1ccc(-c2cc(-c3nc(-c4ccc(S(=O)(=O)C(C)C)cc4)cnc3N)on2)cc1 [VE-822/VX-970] + C=CC(=O)N1CCN(c2nc(=O)n(-c3c(C)ccnc3C(C)C)c3nc(-c4c(O)cccc4F)c(F)cc23)[C@@H](C)C1 [sotorasib] | – | – | – | 2.89 | -0.45 |
| CCCC(CCC)C(=O)O [Valproic acid] + C=CC(=O)N1CCN(c2nc(=O)n(-c3c(C)ccnc3C(C)C)c3nc(-c4c(O)cccc4F)c(F)cc23)[C@@H](C)C1 [sotorasib] | – | – | – | -1.96 | -2.1 |
| C[C@]1(c2nc3c(C(N)=O)cccc3[nH]2)CCCN1 [Veliparib] + C=CC(=O)N1CCN(c2nc(=O)n(-c3c(C)ccnc3C(C)C)c3nc(-c4c(O)cccc4F)c(F)cc23)[C@@H](C)C1 [sotorasib] | – | – | – | 18.6 | 7.52 |
| CC[C@]1(O)C[C@@H]2CN(CCc3c([nH]c4ccccc34)[C@@](C(=O)OC)(c3cc4c(cc3OC)N(C)[C@H]3[C@@](O)(C(=O)OC)[C@H](OC(C)=O)[C@]5(CC)C=CCN6CC[C@]43[C@@H]65)C2)C1 [Vinblastine] + C=CC(=O)N1CCN(c2nc(=O)n(-c3c(C)ccnc3C(C)C)c3nc(-c4c(O)cccc4F)c(F)cc23)[C@@H](C)C1 [sotorasib] | – | – | – | 6.11 | 8.44 |
| CCC1=C[C@@H]2CN(C1)Cc1c([nH]c3ccccc13)[C@@](C(=O)OC)(c1cc3c(cc1OC)N(C)[C@H]1[C@@](O)(C(=O)OC)[C@H](OC(C)=O)[C@]4(CC)C=CCN5CC[C@]31[C@@H]54)C2 [Vinorelbine] + C=CC(=O)N1CCN(c2nc(=O)n(-c3c(C)ccnc3C(C)C)c3nc(-c4c(O)cccc4F)c(F)cc23)[C@@H](C)C1 [sotorasib] | – | – | – | 1.79 | 4.13 |
| CS(=O)(=O)c1ccc(C(=O)Nc2ccc(Cl)c(-c3ccccn3)c2)c(Cl)c1 [Vismodegib] + C=CC(=O)N1CCN(c2nc(=O)n(-c3c(C)ccnc3C(C)C)c3nc(-c4c(O)cccc4F)c(F)cc23)[C@@H](C)C1 [sotorasib] | – | – | – | 12.1 | 9.42 |
| O=C(CCCCCCC(=O)Nc1ccccc1)NO [Vorinostat] + C=CC(=O)N1CCN(c2nc(=O)n(-c3c(C)ccnc3C(C)C)c3nc(-c4c(O)cccc4F)c(F)cc23)[C@@H](C)C1 [sotorasib] | – | – | – | 8.52 | 14.9 |
| CN[C@H]1CN(c2ccc3c(=O)c(C(=O)O)cn(-c4nccs4)c3n2)C[C@@H]1OC [Vosaroxin] + C=CC(=O)N1CCN(c2nc(=O)n(-c3c(C)ccnc3C(C)C)c3nc(-c4c(O)cccc4F)c(F)cc23)[C@@H](C)C1 [sotorasib] | – | – | – | 13.3 | 13.2 |
| COc1cc2nccc(Oc3ccc(NC(=O)C4(C(=O)Nc5ccc(F)cc5)CC4)cc3)c2cc1OC [XL-184] + C=CC(=O)N1CCN(c2nc(=O)n(-c3c(C)ccnc3C(C)C)c3nc(-c4c(O)cccc4F)c(F)cc23)[C@@H](C)C1 [sotorasib] | – | – | – | 11.7 | 14 |

From the supplement of paper PMC11424490
